Assay results taken from ChEMBL document CHEMBL3046032, “Synthesis and biological evaluation of novel AM80 derivatives as antileukemic agents” (Med Chem Res, 2013).

Experiments:
Assay type in all cases: functional, cell-based
HL-60 = assay: Cytotoxicity against Homo sapiens (human) HL60 cells assessed as growth inhibition after 48 hr by MTT assay; conditions: HL-60, 48 h
NB-4 = assay: Cytotoxicity against Homo sapiens (human) NB4 cells assessed as growth inhibition after 48 hr by MTT assay; conditions: NB-4, 48 h
K562 = assay: Cytotoxicity against Homo sapiens (human) K562 cells assessed as growth inhibition after 48 hr by MTT assay; conditions: K562, 48 h

| Compound | IC50 (HL-60) [µM] | IC50 (NB-4) [µM] | IC50 (K562) [µM] |
| --- | --- | --- | --- |
| CCCC(CCC)C(=O)OCCOC(=O)c1ccc(C(=O)Nc2ccc3c(c2)C(C)(C)CCC3(C)C)cc1 | 256 | > 1000 | 664 |
| Cc1cc2c(cc1C(=O)c1ccc(C(=O)OCCCOC(=O)c3ccc(C(=O)Nc4ccc5c(c4)C(C)(C)CCC5(C)C)cc3)cc1)C(C)(C)CCC2(C)C | 14.9 | 112 | 49.1 |
| CCCC(=O)OCCOC(=O)c1ccc(C(=O)Nc2ccc3c(c2)C(C)(C)CCC3(C)C)cc1 | 6.29 | 11 | 18.6 |
| CCCC(CCC)C(=O)NCCNC(=O)c1ccc(C(=O)Nc2ccc3c(c2)C(C)(C)CCC3(C)C)cc1 | 12.4 | 5.69 | 83.7 |
| CCCC(=O)OCCCCOC(=O)c1ccc(C(=O)Nc2ccc3c(c2)C(C)(C)CCC3(C)C)cc1 | 7.32 | 23.2 | 92.6 |
| CCCC(CCC)C(=O)OCCNC(=O)c1ccc(C(=O)Nc2ccc3c(c2)C(C)(C)CCC3(C)C)cc1 | > 1000 | > 1000 | > 1000 |
| Cc1cc2c(cc1C(=O)c1ccc(C(=O)OCCCCOC(=O)c3ccc(C(=O)Nc4ccc5c(c4)C(C)(C)CCC5(C)C)cc3)cc1)C(C)(C)CCC2(C)C | 24.7 | 147 | 84 |
| CCCC(=O)OCCCOC(=O)c1ccc(C(=O)Nc2ccc3c(c2)C(C)(C)CCC3(C)C)cc1 | 2.99 | 5.75 | 4.57 |
| C=C(c1ccc(C(=O)NCCNC(=O)c2ccc(C(=O)Nc3ccc4c(c3)C(C)(C)CCC4(C)C)cc2)cc1)c1cc2c(cc1C)C(C)(C)CCC2(C)C | 14.8 | 569 | 73.5 |
| Cc1cc2c(cc1C(=O)c1ccc(C(=O)NCCOC(=O)c3ccc(C(=O)Nc4ccc5c(c4)C(C)(C)CCC5(C)C)cc3)cc1)C(C)(C)CCC2(C)C | 37.5 | 72.4 | 247 |
| C=C(c1ccc(C(=O)OCCOC(=O)c2ccc(C(=O)Nc3ccc4c(c3)C(C)(C)CCC4(C)C)cc2)cc1)c1cc2c(cc1C)C(C)(C)CCC2(C)C | 30.7 | > 1000 | 504 |
| CCCC(=O)NCCNC(=O)c1ccc(C(=O)Nc2ccc3c(c2)C(C)(C)CCC3(C)C)cc1 | 5.61 | 3.26 | 7.98 |
| CCCC(CCC)C(=O)OCCCOC(=O)c1ccc(C(=O)Nc2ccc3c(c2)C(C)(C)CCC3(C)C)cc1 | 835 | > 1000 | > 1000 |
| CCCC(CCC)C(=O)OCCCCOC(=O)c1ccc(C(=O)Nc2ccc3c(c2)C(C)(C)CCC3(C)C)cc1 | 914 | > 1000 | > 1000 |
| CCCC(=O)OCCNC(=O)c1ccc(C(=O)Nc2ccc3c(c2)C(C)(C)CCC3(C)C)cc1 | 36.8 | 213 | 25.4 |
| Cc1cc2c(cc1C(=O)c1ccc(C(=O)NCCCCCCNC(=O)c3ccc(C(=O)Nc4ccc5c(c4)C(C)(C)CCC5(C)C)cc3)cc1)C(C)(C)CCC2(C)C | 95.4 | > 1000 | 95.4 |
| C=C(c1ccc(C(=O)OCCCCOC(=O)c2ccc(C(=O)Nc3ccc4c(c3)C(C)(C)CCC4(C)C)cc2)cc1)c1cc2c(cc1C)C(C)(C)CCC2(C)C | 25.1 | 650 | > 1000 |
| Cc1cc2c(cc1C(=O)c1ccc(C(=O)OCCOC(=O)c3ccc(C(=O)Nc4ccc5c(c4)C(C)(C)CCC5(C)C)cc3)cc1)C(C)(C)CCC2(C)C | 6.83 | 67 | 39.9 |
| C=C(c1ccc(C(=O)NCCCCCCNC(=O)c2ccc(C(=O)Nc3ccc4c(c3)C(C)(C)CCC4(C)C)cc2)cc1)c1cc2c(cc1C)C(C)(C)CCC2(C)C | 70.7 | > 1000 | 294 |
| C=C(c1ccc(C(=O)NCCOC(=O)c2ccc(C(=O)Nc3ccc4c(c3)C(C)(C)CCC4(C)C)cc2)cc1)c1cc2c(cc1C)C(C)(C)CCC2(C)C | 504 | > 1000 | > 1000 |
| Cc1cc2c(cc1C(=O)c1ccc(C(=O)NCCNC(=O)c3ccc(C(=O)Nc4ccc5c(c4)C(C)(C)CCC5(C)C)cc3)cc1)C(C)(C)CCC2(C)C | 14.3 | 104 | 39.6 |
| C=C(c1ccc(C(=O)OCCCOC(=O)c2ccc(C(=O)Nc3ccc4c(c3)C(C)(C)CCC4(C)C)cc2)cc1)c1cc2c(cc1C)C(C)(C)CCC2(C)C | 19.2 | 212 | > 1000 |
